Data set [1] concerns the target T1, OATP2B1 (Homo sapiens, UniProt O94956).
T1 sequence (O94956 1-709): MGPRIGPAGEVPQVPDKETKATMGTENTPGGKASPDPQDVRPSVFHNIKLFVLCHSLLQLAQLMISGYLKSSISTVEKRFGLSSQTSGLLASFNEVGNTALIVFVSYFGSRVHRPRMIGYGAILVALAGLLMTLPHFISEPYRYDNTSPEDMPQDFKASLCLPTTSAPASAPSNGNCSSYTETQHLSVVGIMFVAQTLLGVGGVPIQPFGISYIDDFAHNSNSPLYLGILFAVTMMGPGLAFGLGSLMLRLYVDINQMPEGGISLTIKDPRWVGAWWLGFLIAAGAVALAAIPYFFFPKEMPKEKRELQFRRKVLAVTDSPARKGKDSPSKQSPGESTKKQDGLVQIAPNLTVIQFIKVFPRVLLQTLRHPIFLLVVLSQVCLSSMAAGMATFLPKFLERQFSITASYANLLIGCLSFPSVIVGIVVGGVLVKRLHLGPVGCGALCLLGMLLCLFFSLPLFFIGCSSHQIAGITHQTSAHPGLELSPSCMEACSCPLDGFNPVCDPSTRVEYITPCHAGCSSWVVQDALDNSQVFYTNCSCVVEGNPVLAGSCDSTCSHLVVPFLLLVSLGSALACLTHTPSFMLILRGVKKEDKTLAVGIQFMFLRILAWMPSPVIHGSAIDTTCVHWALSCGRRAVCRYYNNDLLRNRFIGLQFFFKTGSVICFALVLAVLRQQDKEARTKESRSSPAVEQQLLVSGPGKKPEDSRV
The data set can be described thus: Uptake transporter assay, 3H-estrone sulfate uptake in HEK-293-OATP2B1 cells. As to conditions: for IC50: mean ± SD of three independent experiments.
Description: The uptake transporter assay was performed as reported previously with minor modifications [15]. A day before the uptake assay, Isoplate 96-well plates were coated with poly-D-lysine in PBS with calcium and magnesium and washed with PBS. […] An assay mixture of ^3H-estrone sulfate, a known inhibitor of OATP2B1, or an antioxidant was prepared and incubated in a 37 °C incubator for 10 min. The cells were washed with ice-cold HBSS three times and incubated with MicroScint fluid on a shaker for 1 h for cell lysis. Radioactivity was measured by liquid scintillation counting with a MicroBeta^2® microplate counter. […] On the day of experiment, cells were washed twice with 0.4 mL of HBSS per well and then pre-incubated for 10–20 min in 0.4 mL of HBSS. […] Uptake of ^3H-valsartan was stopped after 15 min by washing three times with ice-cold HBSS. Cells were lysed in 750 µL of lysis buffer (0.1 N NaOH and 0.1% SDS in double-distilled water) per well while shaking for 60 min. A total of 690 µL of the lysate from each well was then added to 2.5 mL of EcoLite scintillation fluid. The radioactivity was determined on a LS6500 Scintillation Counter (Beckman Coulter). Protein concentration was measured with a Pierce™ BCA protein assay kit. The radioactivity in each well was corrected for protein concentration. All values were determined in triplicate, and the final values are expressed as % uptake relative to negative control (1% DMSO).
Antioxidants were screened at a concentration of 200 μM.

Data set [2] concerns the target T2, BCRP (Homo sapiens, UniProt Q9UNQ0).
T2 sequence (Q9UNQ0 1-655): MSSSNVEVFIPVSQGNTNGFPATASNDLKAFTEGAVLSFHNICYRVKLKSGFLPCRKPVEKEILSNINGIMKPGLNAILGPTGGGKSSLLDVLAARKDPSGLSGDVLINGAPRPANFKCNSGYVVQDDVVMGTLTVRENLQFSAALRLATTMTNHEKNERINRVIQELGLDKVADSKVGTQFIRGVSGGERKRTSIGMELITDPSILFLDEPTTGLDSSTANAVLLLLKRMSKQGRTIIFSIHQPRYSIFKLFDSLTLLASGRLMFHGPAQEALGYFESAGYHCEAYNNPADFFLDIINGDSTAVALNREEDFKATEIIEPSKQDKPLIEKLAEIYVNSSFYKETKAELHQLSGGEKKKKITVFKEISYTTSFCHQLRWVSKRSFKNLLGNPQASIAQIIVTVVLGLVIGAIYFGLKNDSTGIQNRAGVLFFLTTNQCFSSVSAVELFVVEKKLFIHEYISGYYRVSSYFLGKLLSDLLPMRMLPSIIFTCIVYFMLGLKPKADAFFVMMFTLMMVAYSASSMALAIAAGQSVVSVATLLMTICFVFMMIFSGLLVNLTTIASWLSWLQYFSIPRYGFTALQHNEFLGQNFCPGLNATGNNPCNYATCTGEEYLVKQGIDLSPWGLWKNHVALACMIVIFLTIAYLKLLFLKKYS
The data set can be described thus: Vesicular transport assay, 3H-CCK8 uptake in BCRP membrane vesicles. More on the design: purchased ThermoFisher Scientific GM0008; host or cells: Sf9 membrane vesicles. The format is biochemical. The procedure: The vesicular transport assay was performed using Spodoptera frugiperda 9 (Sf9) membrane vesicles overexpressing human P-gp or BCRP, as reported previously with minor modifications. In brief, Isoplate 96-well flat-bottom white plates were preincubated with HBSS containing 0.5 mg/mL BSA on an orbital shaker in a 37 °C incubator at 90 rpm for 60 min followed by washing with HBSS. The assay mixture (75 µL/well) contained a probe substrate and either vehicle control, a known inhibitor of P-gp or BCRP, or an antioxidant, in vesicle uptake buffer (50 mM MOPS-Tris, pH 7.0 + 70 mM KCl + 7.5 mM MgCl2) prewarmed to 37 °C. After addition of the assay mixture, 5 μL/well (5 μg/μL stock concentration of the vesicles) of vesicles overexpressing human P-gp or BCRP was added. Uptake assays were initiated by adding 20 μL of either 25 mM adenosine triphosphate (ATP) or 25 mM adenosine monophosphate (AMP) to a final concentration of 5 mM. Plates were incubated at 37 °C for 20 min with orbital shaking (90 rpm). After 20 min, the uptake was quenched by adding 150 μL of ice-cold wash buffer (40 mM MOPS-Tris, pH 7.0 + 70 mM KCl) to each well, and the mixture was transferred to a 96-well filtration plate. Vacuum was applied, and the vesicles were washed three times with wash buffer. Vesicles were then lysed with 100 µL of MicroScint-20.

Data set [3] deals with T2, BCRP. The data set can be described thus: Transwell transport assay, basal-to-apical prazosin flux in MDCK-hBCRP-cMDR1-KO cells. The following applies: BHA 178 µM on both sides; 3H-prazosin 1 µM; 4 h. The protocol:
The transport assay was performed using MDCK-hMDR1-cMDR1-KO, MDCK-cMDR1-KO, and MDCK-hBCRP-cMDR1-KO as reported previously with minor modifications. In brief, 133,000 cells were seeded onto a Transwell membrane insert, a semipermeable polyethylene terephthalate membrane. During the differentiation process, the medium volume in the apical chamber was kept at 300 μL, while the basal chamber contained 1000 μL. The cells were allowed to differentiate for 7–9 days at 37 °C in a humidified incubator with 5% CO2. Before starting transporter assays, the integrity of the cell monolayer was checked using lucifer yellow permeability assays. […] From the basal chamber, 100 μL samples were collected for fluorescence measurements using GloMax® Explorer with a 475 nm excitation filter and a 500–550 nm emission filter to calculate the percent permeability per well.
To assess the flux of digoxin or prazosin from the basal to apical side, the cells were washed twice with HBSS. […] All apical and basal samples were mixed with scintillation fluid (EcoLite(+)™ liquid scintillation cocktail), and their radioactivity was measured using liquid scintillation counting (Beckman LS6500). […] For data analysis, the disintegration per minute counts of digoxin or prazosin from the apical samples were converted to picomoles using radioactivity measured in the substrate solution.

From paper PMC11124870, “Effect of Antioxidants in Medicinal Products on Intestinal Drug Transporters” (Pharmaceutics, 2024) come the findings set out here.

Read-outs that look alike come from different tables or passages of the source.

Consider `COc1ccc(O)cc1C(C)(C)C` [Butylated hydroxyanisole (BHA), 2-tert-Butyl-4-hydroxyanisole], for which, in data set [1] (200 µM, 3H-estrone sulfate), the “Inhibition of OATP2B1” value is “at least 50%”. Also, the “Effect of 30 min pre-incubation on inhibition potency” value in data set [1] (OATP2B1-expressing cells pre-incubated for 30 min) is recorded as “did not further affect their inhibition potency”. In addition, in data set [1] (antioxidant 200 µM, uptake with DMSO set as 100%, mean ± SD, three replicates, HEK-293-OATP2B1 cells), the “% Uptake of 3H-ES OATP2B1” value was 19.8 ± 7.1%. Besides, the IC50 in data set [1] (read-out: IC50 OATP2B1, substrate 3H-estrone sulfate) worked out at 71 ± 20 µM; in data set [1] (read-out: IC50 with preincubation, OATP2B1 expressing cells pre-incubated 30 minutes), 67 ± 12.8 µM; in data set [1] (read-out: IC50 without preincubation, OATP2B1 expressing cells) it was 76.9 ± 15.9 µM; in data set [2] (substrate 3H-CCK8, mean ± SD of three independent experiments), 206 ± 14 µM. In addition, the “Inhibition of BCRP” value in data set [2] (200 µM, 3H-CCK8) is recorded as “at least 50%”. Moreover, the “% Uptake of 3H-CCK8 BCRP” value in data set [2] (antioxidant 200 µM, uptake with DMSO set as 100%, mean ± SD, three replicates, membrane vesicles) came to 46.7 ± 5.5%. In addition, the “Inhibition of prazosin efflux (basal to apical)” value in data set [3] is given as “did not inhibit prazosin efflux”.
